From patent publication US20230173029A1, “TREATMENT OF CARDIAC REMODELLING” (UNIVERSITETET I OSLO, priority 2020, published 2023) come the findings set out here.

The assay deals with left ventricular cardiomyocytes. Description: Cardiomyocyte isolation and t-tubule structure (di-8-ANEPPS confocal imaging). Particulars: HT Dahl/SS rats, 50 or 100 ng/kg/day s.c. (pooled). In kind it is in vivo, rat. The method, then: A total of 29 adult Dahl salt-sensitive (Dahl/SS) male rats with an initial weight of 150 to 200 g were included in the study. Rats were purchased from Charles River Laboratories (USA) and housed in a room with a 12/12-hour light cycle, a temperature of 21° C., and a humidity of 55%. Rats were maintained on a normal salt diet up to seven weeks of age. Twenty-two Dahl/SS were then randomly switched to a high salt diet for 6 weeks to induce hypertension, whilst 7 rats were kept normotensive (NT) on normal salt diet. Drinking water and food was provided ad libitum.
After 2 weeks of high salt diet, 15 hypertensive (HT) rats were started on treatment with proANP31-67. Rats treated with proANP31-67 received one of two dosages: 50 ng/kg/day (n=8) or 100 ng/kg/day (n=7). A total of 14 rats received only vehicle: control rats on a normal salt diet (n=7); and HT rats on a high salt diet (n=7). Rats were randomly assigned to the 3 groups (i.e. control normal salt; high salt untreated; high salt plus treatment).
Drug or vehicle was delivered via Alzet osmotic mini-pumps (Model 2004; mean pumping rate […], mean fill volume […]) implanted subcutaneously (as instructed by the manufacturer) for 28 days. Animals were treated with buprenorphine (0.05 mg/kg s.c.) as analgesic 30 minutes before and up to 1 day following implantation of pumps.
A subset of rats was used for analyses of t-tubule structure in isolated left ventricular cardiomyocytes. These animals were anaesthetised as described above and euthanised by removal of the heart. […]
Cardiomyocytes were then isolated as previously described (Frisk et al., American Journal of Physiology—Heart and Circulatory 307: H609-620, 2014). […] Fluorescence was excited at 488 nm and emitted light above 500 nm was measured. t-tubule captures were recorded with 1871×1871-pixel XY images, recorded as z-stacks (spatial resolution: 77×77×500 nm). […] Cell area, t-tubule density and distance to nearest t-tubule or sarcolemmal membrane were analysed as previously described (Frisk et al., Cardiovascular Research 112: 445-451, 2016).

On to “proANP31-67: Human proANP31-67, linear peptide fragment of proANP consisting of SEQ ID NO: 1; also known as vessel dilator, VSDL (EVVPPQVLSEPNEEAGAALSPLPEVPPWTGEVSPAQR; listed as Homo sapiens)”, for which, under “FIG. 3B”, the cardiomyocyte size result was “preserved”. For the same substance, for the setting “FIG. 3C”, the t-tubule density result was “normal”. The “increase of maximal intracellular distance from each point in the cytosol to the nearest t-tubule or surface membrane” value (FIG. 3D) is reported as “prevented”.
